According to patent publication US20220389515A1, “USE OF BIOMARKERS TO PREDICT CLINICAL SENSITIVITY TO 2-(4-CHLOROPHENYL)-N-((2-(2,6-DIOXOPIPERIDIN-3-YL)-1-OXOISOINDOLIN-5-YL)METHYL)-2,2-DIFLUOROACETAMIDE” (priority 2019, published 2022):
Entries after “also recorded” stand apart in the source; their conditions may differ.

Test system: U937 and OCI-AML2 cells
Assay: Flow cytometry-based CRISPR competition assay (RFP+/GFP+ ratio)
Format: cell-based, human
Method: To investigate the role of the mTOR signaling pathway in mediating Compound D sensitivity, a CRISPR competition assay was performed (see FIG. 6A). U937 cells stably expressing Cas9 were infected with a lentiviral vector expressing GFP and non-targeting sgRNA (sgNT), or lentiviral vectors expressing RFP and non-targeting sgRNA (sgNT), or lentiviral vectors expressing RFP and sgRNAs targeting MTOR, RICTOR or RAPTOR. Cells were then treated with DMSO or 100 nM Compound D. The RFP+/GFP+ ratio was monitored by flow cytometry every 2-3 days thereafter.
Next, CRISPR competition assays were conducted in U937 and OCI-AML2 cells as described above. Specifically, U937 cells stably expressing Cas9 were infected with lentiviral vector constitutively expressing GFP and non-targeting sgRNA (sgNT), or with lentiviral vectors constitutively expressing RFP and non-targeting sgRNA (sgNT) or sgRNAs targeting TSC1 or TSC2. Three days after infection, RFP and GFP cells were mixed at a 1:1 ratio and treated with DMSO, 1 μM Compound D, or 10 μM Compound D. The change of RFP+/GFP+ ratio was monitored by flow cytometry every 2-3 days thereafter. Similarly, OCI-AML2 cells stably expressing Cas9 were infected with lentiviral vector constitutively expressing GFP and non-targeting sgRNA (sgNT), or with lentiviral vectors constitutively expressing RFP and non-targeting sgRNA (sgNT) or sgRNAs targeting TSC1 or TSC2. Three days after infection, RFP and GFP cells were mixed at a 1:1 ratio and treated with DMSO, 0.1 μM Compound D, or […] Compound D. The change of RFP+/GFP+ ratio was monitored by flow cytometry every 2-3 days thereafter.
A CRISPR competition assay was performed as shown in the upper panel of FIG. 5A, and similarly to the assay described above. U937 cells stably expressing Cas9 were infected with a lentiviral vector constitutively expressing GFP and non-targeting sgRNA (sgNT), or with lentiviral vectors constitutively expressing RFP and non-targeting sgRNA (sgNT) or sgRNAs targeting GCN2. On day 2, RFP and GFP cells were mixed at a 1:1 ratio and treated with DMSO or 100 nM Compound D. The change of RFP+/GFP+ ratio was monitored by flow cytometry every 2-3 days thereafter.
Next, CRISPR competition assays were conducted in U937 and OCI-AML2 cells as described above. Specifically, U937 and OCI-AML2 cell lines were transduced with plenti-EF1á-Cas9-P2A-Blast, followed by Blasticidin selection to establish Cas9-expressing cell lines. U937-Cas9 and OCI-AML2-Cas9 cells were then transduced with pRSG17-U6-sgNT-1-UbiC-TagGFP2-2A-Puro, or pRSG16-U6-UbiC-TagRFP-2A-Puro vectors expressing sgNT-1, sgNC-1, sgNC-8 or gene-specific sgRNAs. Transduced cells were washed with 1×PBS 72 hours post-transduction. Cells were assessed for transduction via RFP or GFP fluorescence reporter expression. Once fluorescence reporter expression was confirmed, RFP- and GFP-transduced cells were mixed at a 1:1 ratio and seeded in 2 ml culture media per well in 12-well tissue culture plates at a cell density of 200,000 cells per mL, and treated with DMSO or an appropriate dose of Compound. Remaining cells underwent puromycin selection for 3-7 days and were harvested for immunoblot analysis to confirm gene knock-out. After seeding cells for culture in 12-well plates, 100 iL cell culture per well was removed for flow cytometric analysis as the baseline “Day 0” RFP- and GFP-positive percentages in each well. […]

## O=C1CCC(N2Cc3cc(CNC(=O)C(F)(F)c4ccc(Cl)cc4)ccc3C2=O)C(=O)N1 (centres unmarked) [Compound D, 2-(4-chlorophenyl)-N-((2-(2,6-dioxopiperidin-3-yl)-1-oxoisoindolin-5-yl)methyl)-2,2-difluoroacetamide]
U937 1 μM or 10 μM, OCI-AML2 0.1 μM or 1 μM
  response after TSC1 or TSC2 knockout: conferred a growth advantage in the presence of, but not in the absence of, Compound D; also recorded: increased resistance to Compound D
U937 (10 μM) and OCI-AML2
  growth inhibition after loss of GCN1, GCN2, ATF4 or DDIT4: protected the cells against Compound D-induced growth inhibition
U937, 100 nM
  response of cells lacking GCN2: resistant to Compound D
  sensitivity after knockout of mTOR, Raptor and Rictor: enhances U937 sensitivity to Compound D
U937 and OCI-AML2
  response after ILF2 or ILF3 knockout: led to Compound D resistance
